Reference: patent EP0007672A1, “Isocyanoalkenes, process and useful intermediates for their preparation, pharmaceutical and fungicidal preparations containing those isocyanoalkenes and the use of the fungicidal preparations in agriculture” (GIST-BROCADES N.V., priority 1978, dated 1980)
≈ marks a conversion by molar mass, not a printed value. Like-named read-outs stand apart in the source and are kept apart here. Values belong to the molecule of their own block, whether it stands above or below them.

Tests used:
Experiment in all cases: MIC (Minimum Inhibitory Concentration)
Format in all cases: cell-based
Trichophyton quickeaneum = settings: read-out: MIC values
Text: (§1) In addition they may be used for combatting plant diseases, in particular as fungicides. A list of MIC (Minimum Inhibitory Concentration) values for a number of microorganisms is listed herebelow. The figures in the column headings refer to the compounds prepared according to the experimental examples in comparison with the spectrum of 1-[2-(2,4-dichlorophenyl)-2-{(2,4-dichlorophenyl)-methoxy} -ethyl7-1H-imidazole (better known under the name of miconazole, c.f. Merck Index 9th Ed. page 6047) or natamycin (pimaricin, c.f. Merck Index 9th Ed. page 7233).

[1] = system: Trichophyton mentagrophytus
Text: as §1

Candida albicans = system: Candida albicans
Text: as §1

Pasteurella multocida = settings: read-out: MIC values
Text: as §1

Trichophyton verrucosum = system: Trichophyton verrucosum
Text: as §1

Trichophyton violoceum = settings: read-out: MIC values
Text: as §1

[2] = system: Streptococcus haemolyticus; settings: read-out: MIC values
Text: as §1

[3] = system: Trichophyton schoenleinii; settings: read-out: MIC values
Text: as §1

Trichophyton equinum = system: Trichophyton equinum
Text: as §1

Trichophyton rubrum = system: Trichophyton rubrum
Text: as §1

Trichophyton tonsurans = settings: read-out: MIC values
Text: as §1

[4] = read-out: MIC values, Trichophyton mentagrophytus 367-68
[5] = read-out: MIC values, Trichophyton mentagrophytus 421-67
[6] = read-out: MIC values, Trichophyton mentagrophytus A 3252
[7] = read-out: MIC values, Trichophyton mentagrophytus R 177
[8] = read-out: MIC values, Trichophyton mentagrophytus R 178
[9] = read-out: MIC values, Trichophyton mentagrophytus RRL 305
[10] = read-out: MIC values, Candida albicans A 7
[11] = read-out: MIC values, Candida albicans A 3140
[12] = read-out: MIC values, Candida albicans A 3141
[13] = read-out: MIC values, Candida albicans A 3142
[14] = read-out: MIC values, Candida albicans A 3143
[15] = read-out: MIC values, Candida albicans A 3144
[16] = read-out: MIC values, Candida albicans A 3145
[17] = read-out: MIC values, Candida albicans A 3165
[18] = read-out: MIC values, Candida albicans A 3166
[19] = read-out: MIC values, Candida albicans A 3167
[20] = read-out: MIC values, Candida albicans A 3168
[21] = read-out: MIC values, Candida albicans A 3169
[22] = read-out: MIC values, Candida albicans A 3171
[23] = read-out: MIC values, Candida albicans A 3184
[24] = read-out: MIC values, Candida albicans A 3190
[25] = read-out: MIC values, Candida albicans A 3191
[26] = read-out: MIC values, Candida albicans A 3192
[27] = read-out: MIC values, Candida albicans A 3194
[28] = read-out: MIC values, Candida albicans A 3196
[29] = read-out: MIC values, Trichophyton equinum 182-76
[30] = read-out: MIC values, Trichophyton equinum 856-71
[31] = read-out: MIC values, Trichophyton rubrum 218-65
[32] = read-out: MIC values, Trichophyton rubrum 494-62

SMILES: [C-]#[N+]C(C1=CCCCCC1)S(=O)(=O)c1ccc(C)cc1 (stereo not shown) [Example 18b, a-(cyclohepten-1-yl)-a-(4-toluenesulphonyl)-methylisocyanide]
MIC (Trichophyton quickeaneum; Trichophyton): 25 µg/mL (≈ 86.4 µM)
MIC [1, 4]: 25 µg/mL (≈ 86.4 µM)
MIC [1, 5]: > 100 µg/mL
MIC [1, 6]: > 100 µg/mL
MIC [1, 7]: > 100 µg/mL
MIC [1, 8]: > 100 µg/mL
MIC [1, 9]: > 100 µg/mL
MIC (Candida albicans; [10]): 6 µg/mL (≈ 20.7 µM)
MIC (Candida albicans; [11]): 6 µg/mL (≈ 20.7 µM)
MIC (Candida albicans; [12]): 12.5 µg/mL (≈ 43.2 µM)
MIC (Candida albicans; [13]): 12.5 µg/mL (≈ 43.2 µM)
MIC (Candida albicans; [14]): 12.5 µg/mL (≈ 43.2 µM)
MIC (Candida albicans; [15]): 12.5 µg/mL (≈ 43.2 µM)
MIC (Candida albicans; [16]): 6 µg/mL (≈ 20.7 µM)
MIC (Candida albicans; [17]): 12.5 µg/mL (≈ 43.2 µM)
MIC (Candida albicans; [18]): 12.5 µg/mL (≈ 43.2 µM)
MIC (Candida albicans; [19]): 12.5 µg/mL (≈ 43.2 µM)
MIC (Candida albicans; [20]): 6 µg/mL (≈ 20.7 µM)
MIC (Candida albicans; [21]): 12.5 µg/mL (≈ 43.2 µM)
MIC (Candida albicans; [22]): 12.5 µg/mL (≈ 43.2 µM)
MIC (Candida albicans; [23]): 12.5 µg/mL (≈ 43.2 µM)
MIC (Candida albicans; [24]): 12.5 µg/mL (≈ 43.2 µM)
MIC (Candida albicans; [25]): 12.5 µg/mL (≈ 43.2 µM)
MIC (Candida albicans; [26]): 12.5 µg/mL (≈ 43.2 µM)
MIC (Candida albicans; [27]): 25 µg/mL (≈ 86.4 µM)
MIC (Candida albicans; [28]): 12.5 µg/mL (≈ 43.2 µM)
MIC (Pasteurella multocida; Pasteurella multocida): 50 µg/mL (≈ 173 µM)
MIC (Trichophyton verrucosum; read-out: MIC values, Trichophyton verrucosum 134-66): 3 µg/mL (≈ 10.4 µM)
MIC (Trichophyton verrucosum; read-out: MIC values, Trichophyton verrucosum A 2922): 12.5 µg/mL (≈ 43.2 µM)
MIC (Trichophyton violoceum; Trichophyton): 6 µg/mL (≈ 20.7 µM)
MIC ([2]; Streptococcus): 25 µg/mL (≈ 86.4 µM)
MIC ([3]; Trichophyton schoenleinii): 6 µg/mL (≈ 20.7 µM)
MIC (Trichophyton equinum; [29]): > 100 µg/mL
MIC (Trichophyton equinum; read-out: MIC values, Trichophyton equinum 441-51): < 0.05 µg/mL
MIC (Trichophyton equinum; [30]): 100 µg/mL (≈ 346 µM)
MIC (Trichophyton rubrum; [31]): 100 µg/mL (≈ 346 µM)
MIC (Trichophyton rubrum; [32]): > 100 µg/mL

MIC (Trichophyton quickeaneum; Trichophyton quickeaneum A 2040): 100 µg/mL (≈ 401 µM)
MIC ([1]; Trichophyton mentagrophytus 367-68, read-out: MIC values): 100 µg/mL (≈ 401 µM)
MIC ([1]; Trichophyton mentagrophytus 421-67, read-out: MIC values): 50 µg/mL (≈ 201 µM)
MIC ([1]; Trichophyton mentagrophytus A 3252, read-out: MIC values): 25 µg/mL (≈ 100 µM)
MIC ([1]; Trichophyton mentagrophytus R 177, read-out: MIC values): 25 µg/mL (≈ 100 µM)
MIC ([1]; Trichophyton mentagrophytus R 178, read-out: MIC values): 25 µg/mL (≈ 100 µM)
MIC ([1]; Trichophyton mentagrophytus RRL 305, read-out: MIC values): 50 µg/mL (≈ 201 µM)
MIC (Candida albicans; Candida albicans A 7, read-out: MIC values): 25 µg/mL (≈ 100 µM)
MIC (Candida albicans; Candida albicans A 3140, read-out: MIC values): 25 µg/mL (≈ 100 µM)
MIC (Candida albicans; Candida albicans A 3141, read-out: MIC values): 25 µg/mL (≈ 100 µM)
MIC (Candida albicans; Candida albicans A 3142, read-out: MIC values): 3 µg/mL (≈ 12 µM)
MIC (Candida albicans; Candida albicans A 3143, read-out: MIC values): 12.5 µg/mL (≈ 50.1 µM)
MIC (Candida albicans; Candida albicans A 3144, read-out: MIC values): 12.5 µg/mL (≈ 50.1 µM)
MIC (Candida albicans; Candida albicans A 3145, read-out: MIC values): 12.5 µg/mL (≈ 50.1 µM)
MIC (Candida albicans; Candida albicans A 3165, read-out: MIC values): 25 µg/mL (≈ 100 µM)
MIC (Candida albicans; Candida albicans A 3166, read-out: MIC values): 50 µg/mL (≈ 201 µM)
MIC (Candida albicans; Candida albicans A 3167, read-out: MIC values): 50 µg/mL (≈ 201 µM)
MIC (Candida albicans; Candida albicans A 3168, read-out: MIC values): 50 µg/mL (≈ 201 µM)
MIC (Candida albicans; Candida albicans A 3169, read-out: MIC values): 25 µg/mL (≈ 100 µM)
MIC (Candida albicans; Candida albicans A 3171, read-out: MIC values): 25 µg/mL (≈ 100 µM)
MIC (Candida albicans; Candida albicans A 3184, read-out: MIC values): 25 µg/mL (≈ 100 µM)
MIC (Candida albicans; Candida albicans A 3190, read-out: MIC values): 25 µg/mL (≈ 100 µM)
MIC (Candida albicans; Candida albicans A 3191, read-out: MIC values): 25 µg/mL (≈ 100 µM)
MIC (Candida albicans; Candida albicans A 3192, read-out: MIC values): 25 µg/mL (≈ 100 µM)
MIC (Candida albicans; Candida albicans A 3194, read-out: MIC values): 25 µg/mL (≈ 100 µM)
MIC (Candida albicans; Candida albicans A 3196, read-out: MIC values): 25 µg/mL (≈ 100 µM)
MIC (Pasteurella multocida; Pasteurella multocida A 723): 50 µg/mL (≈ 201 µM)
MIC (Trichophyton violoceum; Trichophyton violoceum 442-62): 25 µg/mL (≈ 100 µM)
MIC (Trichophyton tonsurans; Trichophyton tonsurans 561-50): 25 µg/mL (≈ 100 µM)
MIC ([3]; Trichophyton schoenleinii 435-63): 25 µg/mL (≈ 100 µM)
MIC (Trichophyton equinum; Trichophyton equinum 182-76, read-out: MIC values): 50 µg/mL (≈ 201 µM)
MIC (Trichophyton equinum; Trichophyton equinum 856-71, read-out: MIC values): 50 µg/mL (≈ 201 µM)
MIC (Trichophyton rubrum; Trichophyton rubrum 218-65, read-out: MIC values): 25 µg/mL (≈ 100 µM)
MIC (Trichophyton rubrum; Trichophyton rubrum 494-62, read-out: MIC values): 50 µg/mL (≈ 201 µM)
MIC (Trichophyton rubrum; Trichophyton rubrum A 810, read-out: MIC values): 25 µg/mL (≈ 100 µM)
SMILES: [C-]#[N+]C(=CCCC)S(=O)(=O)c1ccc(C)cc1 [Example 24, 1-isocyano-1-(4-toluenesulphonyl)-1-pentene]
MIC ([2]; Streptococcus haemolyticus A 1088): 100 µg/mL (≈ 401 µM)

SMILES: [C-]#[N+]C(=C1CCCCC1)S(=O)(=O)c1ccccc1 [Example 25, a-cyclohexylidene-a-benzenesulphonylmethyl-isocyanide]
MIC (Trichophyton quickeaneum; Trichophyton): 3 µg/mL (≈ 11.5 µM)
MIC [1, 4]: 1.5 µg/mL (≈ 5.74 µM)
MIC [1, 5]: 1.5 µg/mL (≈ 5.74 µM)
MIC [1, 6]: 3 µg/mL (≈ 11.5 µM)
MIC [1, 7]: 3 µg/mL (≈ 11.5 µM)
MIC [1, 8]: 3 µg/mL (≈ 11.5 µM)
MIC [1, 9]: 3 µg/mL (≈ 11.5 µM)
MIC (Candida albicans; [10]): 1.5 µg/mL (≈ 5.74 µM)
MIC (Candida albicans; [11]): 1.5 µg/mL (≈ 5.74 µM)
MIC (Candida albicans; [12]): 1.5 µg/mL (≈ 5.74 µM)
MIC (Candida albicans; [13]): 1.5 µg/mL (≈ 5.74 µM)
MIC (Candida albicans; [14]): 1.5 µg/mL (≈ 5.74 µM)
MIC (Candida albicans; [15]): 3 µg/mL (≈ 11.5 µM)
MIC (Candida albicans; [16]): 3 µg/mL (≈ 11.5 µM)
MIC (Candida albicans; [17]): 3 µg/mL (≈ 11.5 µM)
MIC (Candida albicans; [18]): 1.5 µg/mL (≈ 5.74 µM)
MIC (Candida albicans; [19]): 3 µg/mL (≈ 11.5 µM)
MIC (Candida albicans; [20]): 6 µg/mL (≈ 23 µM)
MIC (Candida albicans; [21]): 1.5 µg/mL (≈ 5.74 µM)
MIC (Candida albicans; [22]): 3 µg/mL (≈ 11.5 µM)
MIC (Candida albicans; [23]): 1.5 µg/mL (≈ 5.74 µM)
MIC (Candida albicans; [24]): 3 µg/mL (≈ 11.5 µM)
MIC (Candida albicans; [25]): 6 µg/mL (≈ 23 µM)
MIC (Candida albicans; [26]): 1.5 µg/mL (≈ 5.74 µM)
MIC (Candida albicans; [27]): 3 µg/mL (≈ 11.5 µM)
MIC (Candida albicans; [28]): 3 µg/mL (≈ 11.5 µM)
MIC (Pasteurella multocida; Pasteurella multocida): 3 µg/mL (≈ 11.5 µM)
MIC (Trichophyton violoceum; Trichophyton): 3 µg/mL (≈ 11.5 µM)
MIC ([2]; Streptococcus): 25 µg/mL (≈ 95.7 µM)
MIC (Trichophyton tonsurans; Trichophyton tonsurans): 0.2 µg/mL (≈ 0.765 µM)
MIC ([3]; Trichophyton schoenleinii): 0.8 µg/mL (≈ 3.06 µM)
MIC (Trichophyton equinum; [29]): 6 µg/mL (≈ 23 µM)
MIC (Trichophyton equinum; [30]): 12.5 µg/mL (≈ 47.8 µM)
MIC (Trichophyton rubrum; [31]): 0.4 µg/mL (≈ 1.53 µM)
MIC (Trichophyton rubrum; [32]): 6 µg/mL (≈ 23 µM)
MIC (Trichophyton rubrum; read-out: MIC values, Trichophyton rubrum A 810): 0.4 µg/mL (≈ 1.53 µM)
